# According to a melting point compilation (Tetko et al.; mined from patent text by program, amines drawn as free bases though some values may be those of a salt):
row,Compound,melting point [°C]
1,COC(=O)c1ccc(C(=O)NS(=O)(=O)c2ccc(CCNC(=O)CCC(C)C)cc2)cn1,204 to 206
2,C[C@@H](n1ncn(-c2ccc(-n3nccn3)cc2)c1=O)[C@](O)(Cn1cncn1)c1ccc(F)cc1F,213 to 215
3,CCC(CC)COc1ccc(S(=O)(=O)C2(C(=O)NO)CCN(Cc3ccccc3)CC2)cc1,114
4,Oc1c(CCl)cc(F)cc1CCl,70
5,CC(C)Oc1ccc(C=O)c(Oc2ccc(Cl)cc2Cl)n1,73 to 74
6,O=S1(=O)NCN(C2CC2)c2cc(Br)cc(Br)c21,203 to 205
7,CC(=O)Nc1cc(C(C)=O)ccc1OCCCN1CCC(c2noc3cc(F)ccc23)CC1,108 to 110
8,CN(C(=O)c1ccc2nonc2c1)C1CCCCCC1,80 to 81
9,COC(=O)c1nc(-c2ccc(Cl)c(OC)c2F)nc2ncn(C)c12,197 to 198
10,CC(=O)NC1C(OCc2ccccc2)OC(COCc2ccccc2)C(OCc2ccccc2)C1OCC(O)CO (stereo unspecified),165 to 166
11,CSc1ccc(-n2cnc3ccc(-c4nnc(CCc5cccc(C#N)c5)o4)cc32)cc1,185 to 186
12,CN(c1ccccc1)c1ncccc1NC(=O)c1ccccc1Br,144 to 146
13,FC(F)(F)c1nnnn1-c1cccc2ccccc12,108
14,O=C(O)C(=O)c1ccc(OCCOc2ccc3ccccc3c2)c([N+](=O)[O-])c1,164
15,N#CCCNC(=O)c1n[nH]cc1NC(=O)C1CCCC1,180 to 181
16,COc1ccc(CCNCC(O)c2cccc(Cl)c2)cc1 (stereo unspecified),101 to 103
17,CCNc1cc(Nc2ccc(OC)cc2)ncn1,190 to 193
18,CCOC(=O)C=CC=Cc1cccc([N+](=O)[O-])c1,100 to 101
19,COc1ccc(CN(C)CCOc2ccc(NC(=O)c3cc(SC)cc4c(=O)c5ccccc5[nH]c34)cc2)cc1OC,170
20,N#Cc1ccc(NCCc2[nH]c3c(cnc4cc(Cl)ccc43)c2C=O)cc1,203 to 206
21,Cc1cccc2nc(-c3ccc(Cl)cc3)c(C(N)=O)c(=O)n12,202 to 204
22,COc1cc2ccc(Br)cc2cc1C12CC3CC(CC(C3)C1)C2,164 to 168
23,CCOC(=O)c1ncn2c3cccc(I)c3c(=O)n(C)c12,266 to 267
24,Nc1cc(N=c2sc(=S)n3n2CCCC3)c(F)cc1Cl,59 to 61
25,CC(C)=CCC/C(C)=C/CSc1nc2ccccc2[nH]1,98 to 100
26,COc1ccc2c(c1)CCC(CN1CCC(O)(Cc3ccc(C)cc3)CC1)C2 (racemic),91 to 94

row,Compound,melting point [°C]
1,COc1ccc(COc2cccc(C(=O)Nc3ccc(C#N)cn3)c2)cc1,132 to 134
2,CS(=O)(=O)c1ccc(-c2nn(Cc3ccc(Cl)cc3Cl)c(=O)cc2-c2ccc(F)cc2)cc1,212
3,COc1ccc(CNc2nc(CN3CCC(C(=O)O)CC3)nc3oc4c(c23)CCCC4)cc1Cl,233 to 235
4,N#Cc1cccc(-c2ccccc2O)c1,120 to 123
5,O=C(O)c1[nH]c2ccc(Cl)cc2c1S(=O)(=O)c1nccs1,260 to 261
6,COc1ccccc1Oc1c(NS(=O)(=O)c2ccc(C(C)(C)C)cc2)ncnc1OCCO,143 to 148
7,Cn1c(Br)c(C#N)c(Br)c1C#N,175 to 178
8,COc1cc2cc(C(N)=O)c(N)nc2cc1OC,275
9,OCCNCCc1c[nH]c2ccccc12,92
10,COC(=O)c1cc(C(C)O)c(C(F)(F)F)cc1NC(C)=O (stereo unspecified),120 to 122
11,Cc1ccc(COc2cccc(/C=C/c3ccc(CN4CCCCC4)cc3)c2)cc1,87 to 88
12,COCCNC(=O)c1cccc(-c2cccc3cc(Cc4ccc5c(c4)CCO5)sc23)c1,79 to 80
13,COc1cccc(C(=C/C=C/C(=O)NC(C)(C)CCCc2cccnc2)c2cccc(OC)c2)c1,120 to 121
14,Nc1ccc(C23CC2C(=O)N(CC2CCCCC2)C3=O)cc1 (stereo unspecified),125 to 126
15,Cc1c(NC(=O)c2ccc(-c3ccc(F)cc3)cc2)ccc2cc(CN3CCC(CCCC(=O)N4CCCCC4)CC3)cnc12,154 to 156
16,O=C1Nc2c(ccc3ccccc23)SC1c1ccc(Cl)cc1 (stereo unspecified),236 to 238
17,COc1cc(OCCBr)ccc1C=O,78 to 79
18,CCOC(=O)C(C)Oc1cc(N=C(C(N)=O)N2CCCC2)c(Cl)cc1Cl (stereo unspecified),160 to 163
19,CSc1ncccc1C1C(C(=O)OC(C)C)=C(C)NC(=S)N1C(=O)OC(C)C (stereo unspecified),119 to 121
20,O=C1CCC(c2ccccc2)(c2ccccc2)[C@@H]2CN(C(=O)Cc3ccccc3O)C[C@H]12 (racemic),232
21,COCCOC1CC(c2ccccc2)Oc2c1ccc1c2nc(C)n1C (stereo unspecified),148 to 149
22,CCNc1n[nH]c2ccc(C3C(C#N)=C(C)NC(C)=C3C#N)cc12,248
23,Cc1coc2ccc(C#N)cc12,73
24,Nc1ccccc1NC(=O)c1ccc(CNC(=O)COc2cccnc2)cc1,154 to 155
25,Cc1nc2c(cc1CCCO)c(=O)c(C(=O)NCc1ccc(Cl)cc1)cn2C,176 to 177
26,Cn1cc(C#N)c(Br)c1Br,138 to 139

row,Compound,melting point [°C]
1,O=C1OCCC1Oc1ccc(C(F)(F)F)cc1 (stereo unspecified),84 to 86
2,CCC(CC)C(NS(=O)(=O)c1ccc(Cl)c(Cl)c1)c1ccnn1-c1ccccc1 (stereo unspecified),56 to 66
3,O=C(O)c1cc(Cl)cc2c1NCCO2,209 to 210
4,CC(C)c1cccc(S(=O)(=O)n2c(CCCC(=O)O)cc3cc(Cl)ccc32)c1,128
5,CC(Br)CCCCN1C(=O)c2ccccc2C1=O (stereo unspecified),48 to 51
6,N#CCOc1ccc2cc(-c3cc4ccccc4o3)ccc2c1Cl,162 to 163
7,Cc1ccc(Cc2c[nH]c(=S)[nH]c2=O)cn1,240 to 241
8,COc1ccc(C(=O)C(C)NC(=O)C(F)(F)F)cc1 (stereo unspecified),110 to 114
9,CCOC(=O)CON1C(=O)C(=O)N(c2cc(Cl)ccc2C)C1=S,157 to 159
10,Cc1nn(-c2cc3nc(S)sc3cc2Cl)c(=O)n1C(F)F,201 to 203
11,FC(F)(F)Oc1ccc2nc(Cl)sc2c1,< 50
12,CCN1c2ncc(CCc3cnc4ccccc4c3)cc2C(=O)N(C)c2ccc(F)nc21,154 to 156
13,O=C(CC(Cc1cccc2ccccc12)C(=O)N1C(=O)OCC1Cc1ccccc1)N1CCOCC1 (stereo unspecified),80 to 82
14,O=C(CCl)Nc1ccc(Cl)cc1C(=O)O,188
15,CC1=NN=C(N2N=C(c3ccc([N+](=O)[O-])cc3)c3cc4c(cc3CC2C)OCO4)SC1 (stereo unspecified),203 to 204
16,CCOc1ccc(-c2c(C)c3cc(O)ccc3n2Cc2ccc(OCCN3CCCCC3)cc2)cc1,173 to 175
17,NC(=O)CNC(=O)c1cccc(-c2ccc3c(c2)N(c2cccc(Cl)c2Cl)CC3)c1,203 to 204
18,CCCCc1ncc(C=C2C(=O)Nc3ccccc32)n1Cc1ccc(C(=O)OC)cc1Cl,219 to 220
19,CCOC(=O)OC12Oc3cc(C(C)C)ccc3C1(OC(=O)OCC)C(=O)c1ccccc12 (stereo unspecified),150 to 153
20,O=C1CNCCN1CCc1ccccc1,75 to 78
21,COc1ccc(NC(C)=O)c(Sc2ccc([N+](=O)[O-])cc2[N+](=O)[O-])c1,125 to 126
22,COc1cc(OC)c2c(=O)[nH]c(-c3ccc(CN4C(=O)CNC4=O)cc3)nc2c1,317 to 318
23,CCCCCc1oc(-c2ccc(Cl)cc2)nc1CC(=O)O,136 to 137
24,C[C@@H]1CN(c2c(F)cc3c(=O)c(C(=O)O)cn(C4CC4)c3c2F)C[C@H]1N (relative stereo),257 to 260
25,COC(=O)c1cc(N(C)C)cc(N(C)C)c1,86 to 88
26,CCc1[nH]n(C2CCCC2)c2nc(Cc3ccccn3)nc(=O)c1-2,120 to 122

row,Compound,melting point [°C]
1,N#Cc1ccc(C(O)c2occc(=O)c2OCc2ccccc2)cc1 (stereo unspecified),135 to 138
2,CCCCCCCCCCCCc1ccc(NC(C)=O)cc1,100 to 102
3,CN(C)N=Nc1cc([N+](=O)[O-])sc1C(N)=O,240 to 246
4,CCOC(=O)C(=O)N(C)c1cccccc1=O,70 to 71
5,CC(C)(C)OC(=O)n1ccc2c([N+](=O)[O-])c(NC(=O)COCc3ccccc3)ccc21,145 to 146
6,CCCCc1nn(-c2cc([N+](=O)[O-])ccc2Cl)c(=O)n1Cc1ccc(-c2ccccc2S(=O)(=O)NC(C)(C)C)cc1,> 75
7,Cc1ccc(S(=O)(=O)Cc2c(C#N)nn(-c3ccccc3)c2O)cc1,214
8,COC(=O)C1=Cc2cccc(OCc3ccccc3)c2CC1,64 to 67
9,COc1cc(N)c(Cl)cc1C(=O)OCC12CCCN(CCC1)C2,152 to 154
10,O=C(c1ccsc1)c1cccc2ccccc12,50
11,Cc1cc(C)c2c(c1O)C(NCc1cc(C(C)(C)C)c(O)c(C(C)(C)C)c1)CC2 (stereo unspecified),154 to 155
12,CC(C)Oc1ccc(C(=O)NCCCCCCCNC(=O)c2ccc(OC(C)C)cc2)cc1,135 to 136
13,COC(=O)c1cc2c(nc1Cl)CCCCC2,148 to 149
14,CC(C)N(Cc1ccccc1)c1ncnc2nc[nH]c12,200 to 202
15,c1ccc(-n2ncnc2-c2ccncc2)cc1,92 to 94
16,CC(C)(C)NC(=O)c1nn(-c2ccc(F)cc2F)c2c1CC1CC2C1(C)C (stereo unspecified),168 to 171
17,CNC(=O)c1ccc(CN2CCN(c3nc(C)c(-c4cc(C)n[nH]4)s3)C2=O)cc1,236 to 238
18,Cc1c(C2=NC(C)(C)CO2)cccc1[N+](=O)[O-],60 to 61
19,O=C(Nc1cccc(Cc2nnn[nH]2)c1)C(F)(F)C(F)(F)C(F)(F)F,148 to 151
20,O=C(NO)NCCCCC1CCSS1 (stereo unspecified),100 to 101
21,CC(C)(C)OC(=O)NCc1ccc(CNC(=O)[C@@H](CCCNC(N)=N[N+](=O)[O-])NC(=O)C(c2ccccc2)c2ccccc2)cc1,198
22,CNS(=O)(=O)CC(=O)c1cc(OC)c(OC)c(OC)c1N,125 to 127
23,CCCCCCCCCCCCCCCCOC(=O)c1cnccn1,53 to 54
